Results reported in ChEMBL document CHEMBL4665836, “Overcoming β-Lactam resistance in Pseudomonas aeruginosa using non-canonical tobramycin-based antibiotic adjuvants” (2020).

Tests used:
Format in all cases: functional
[1] = tested on: Pseudomonas aeruginosa; experiment: Potentiation of aztreonam-induced antibacterial activity against carbapenem-resistant Pseudomonas aeruginosa 109084 clinical isolate assessed as fold reduction in aztreonam MIC at 8 uM in presence of beta-lactamase inhibitor, avi-bactam
[2] = tested on: Pseudomonas aeruginosa; experiment: Potentiation of imipenem-induced antibacterial activity against carbapenem-resistant Pseudomonas aeruginosa 86052 clinical isolate assessed as imipenem MIC at 8 uM by checkerboard assay (reference value: 32 ug/ml)
[3] = tested on: Pseudomonas aeruginosa; experiment: Potentiation of aztreonam-induced antibacterial activity against carbapenem-resistant Pseudomonas aeruginosa 101885 clinical isolate assessed as aztreonam MIC at 8 uM by checkerboard assay (reference value: 16 ug/ml)
[4] = tested on: Pseudomonas aeruginosa; experiment: Potentiation of ceftazidime-induced antibacterial activity against carbapenem-resistant Pseudomonas aeruginosa 108590 clinical isolate assessed as ceftazidime MIC at 8 uM by checkerboard assay (reference value: 32 ug/ml)
[5] = tested on: Pseudomonas aeruginosa; experiment: Potentiation of aztreonam-induced antibacterial activity against carbapenem-resistant Pseudomonas aeruginosa PAO750 harboring mexAB-oprM/mexCD-oprJ/mexEF-oprN/mexJK/mexXY/opmH efflux deficient mutant assessed as aztreonam MIC at 8 uM by checkerboard assay (reference value: 0.5 ug/ml)
[6] = tested on: Pseudomonas aeruginosa; experiment: Potentiation of aztreonam-induced antibacterial activity against carbapenem-resistant Pseudomonas aeruginosa PAO200 harboring mexAB-oprM efflux deficient mutant assessed as aztreonam MIC at 8 uM by checkerboard assay (reference value: 0.25 ug/ml)
[7] = tested on: Pseudomonas aeruginosa; experiment: Potentiation of ceftazidime-induced antibacterial activity against carbapenem-resistant Pseudomonas aeruginosa 109084 clinical isolate assessed as fold reduction in ceftazidime MIC at 8 uM in presence of beta-lactamase inhibitor, avi-bactam
[8] = tested on: Pseudomonas aeruginosa; experiment: Potentiation of imipenem-induced antibacterial activity against wild type Pseudomonas aeruginosa PAO1 assessed as fold reduction in imipenem MIC at 8 uM
[9] = tested on: Pseudomonas aeruginosa; experiment: Potentiation of imipenem-induced antibacterial activity against carbapenem-resistant Pseudomonas aeruginosa 107092 clinical isolate assessed as fold reduction in imipenem MIC at 8 uM in presence of beta-lactamase inhibitor, rele-bactam
[10] = tested on: Pseudomonas aeruginosa; experiment: Potentiation of imipenem-induced antibacterial activity against carbapenem-resistant Pseudomonas aeruginosa 107092 clinical isolate assessed as imipenem MIC at 8 uM by checkerboard assay (reference value: 64 ug/ml)
[11] = tested on: Pseudomonas aeruginosa; experiment: Potentiation of aztreonam-induced antibacterial activity against carbapenem-resistant Pseudomonas aeruginosa 262-101856 clinical isolate assessed as aztreonam MIC at 8 uM by checkerboard assay (reference value: 32 ug/ml)
[12] = tested on: Pseudomonas aeruginosa; experiment: Potentiation of ceftazidime-induced antibacterial activity against carbapenem-resistant Pseudomonas aeruginosa 108590 clinical isolate assessed as fold reduction in ceftazidime MIC at 8 uM in presence of beta-lactamase inhibitor, avi-bactam
[13] = tested on: Pseudomonas aeruginosa; experiment: Potentiation of ceftazidime-induced antibacterial activity against carbapenem-resistant Pseudomonas aeruginosa 88949 clinical isolate assessed as ceftazidime MIC at 8 uM by checkerboard assay (reference value: 64 ug/ml)
[14] = tested on: Pseudomonas aeruginosa; experiment: Potentiation of aztreonam-induced antibacterial activity against carbapenem-resistant Pseudomonas aeruginosa 109084 clinical isolate assessed as aztreonam MIC at 8 uM by checkerboard assay (reference value: 64 ug/ml)
[15] = tested on: Pseudomonas aeruginosa; experiment: Potentiation of imipenem-induced antibacterial activity against carbapenem-resistant Pseudomonas aeruginosa 108590 clinical isolate assessed as fold reduction in imipenem MIC at 8 uM in presence of beta-lactamase inhibitor, rele-bactam
[16] = tested on: Pseudomonas aeruginosa; experiment: Potentiation of aztreonam-induced antibacterial activity against carbapenem-resistant Pseudomonas aeruginosa 260-97103 clinical isolate assessed as aztreonam MIC at 8 uM by checkerboard assay (reference value: 64 ug/ml)
[17] = tested on: Pseudomonas aeruginosa; experiment: Antibacterial activity against wild type Pseudomonas aeruginosa PAO1
[18] = tested on: Pseudomonas aeruginosa; experiment: Potentiation of ceftazidime-induced antibacterial activity against carbapenem-resistant Pseudomonas aeruginosa 88949 clinical isolate assessed as fold reduction in ceftazidime MIC at 8 uM in presence of beta-lactamase inhibitor, avi-bactam
[19] = tested on: Pseudomonas aeruginosa; experiment: Potentiation of imipenem-induced antibacterial activity against carbapenem-resistant Pseudomonas aeruginosa 259-96918 clinical isolate expressing MBL assessed as imipenem MIC at 8 uM by checkerboard assay (reference value: 64 ug/ml)
[20] = tested on: Pseudomonas aeruginosa; experiment: Potentiation of imipenem-induced antibacterial activity against carbapenem and colistin-resistant Pseudomonas aeruginosa 91433 clinical isolate assessed as imipenem MIC at 8 uM by checkerboard assay (reference value: 8 ug/ml)
[21] = tested on: Pseudomonas aeruginosa; experiment: Potentiation of ceftazidime-induced antibacterial activity against carbapenem-resistant Pseudomonas aeruginosa 262-101856 clinical isolate assessed as ceftazidime MIC at 8 uM by checkerboard assay (reference value: 16 ug/ml)
[22] = tested on: Pseudomonas aeruginosa; experiment: Potentiation of ceftazidime-induced antibacterial activity against wild type Pseudomonas aeruginosa PAO1 assessed as fold reduction in ceftazidime MIC at 8 uM
[23] = tested on: Pseudomonas aeruginosa; experiment: Potentiation of imipenem-induced antibacterial activity against carbapenem-resistant Pseudomonas aeruginosa 108590 clinical isolate assessed as imipenem MIC at 8 uM by checkerboard assay (reference value: 16 ug/ml)
[24] = tested on: Pseudomonas aeruginosa; experiment: Potentiation of aztreonam-induced antibacterial activity against wild type Pseudomonas aeruginosa PAO1 assessed as fold reduction in aztreonam MIC at 8 uM
[25] = tested on: Pseudomonas aeruginosa; experiment: Potentiation of aztreonam-induced antibacterial activity against carbapenem-resistant Pseudomonas aeruginosa 86052 clinical isolate assessed as aztreonam MIC at 8 uM by checkerboard assay (reference value: 64 ug/ml)
[26] = tested on: Pseudomonas aeruginosa; experiment: Potentiation of ceftazidime-induced antibacterial activity against carbapenem and colistin-resistant Pseudomonas aeruginosa 91433 clinical isolate assessed as ceftazidime MIC at 8 uM by checkerboard assay (reference value: 4 ug/ml)
[27] = tested on: Pseudomonas aeruginosa; experiment: Potentiation of imipenem-induced antibacterial activity against carbapenem-resistant Pseudomonas aeruginosa PAO750 harboring mexAB-oprM/mexCD-oprJ/mexEF-oprN/mexJK/mexXY/opmH efflux deficient mutant assessed as imipenem MIC at 8 uM by checkerboard assay (reference value: 4 ug/ml)
[28] = tested on: Pseudomonas aeruginosa; experiment: Potentiation of ceftazidime-induced antibacterial activity against wild type Pseudomonas aeruginosa PAO1 assessed as ceftazidime MIC at 8 uM by checkerboard assay (reference value: 2 ug/ml)
[29] = tested on: Pseudomonas aeruginosa; experiment: Potentiation of ceftazidime-induced antibacterial activity against carbapenem-resistant Pseudomonas aeruginosa 107092 clinical isolate assessed as ceftazidime MIC at 8 uM by checkerboard assay (reference value: 128 ug/ml)
[30] = tested on: Pseudomonas aeruginosa; experiment: Potentiation of ceftazidime-induced antibacterial activity against carbapenem-resistant Pseudomonas aeruginosa PAO200 harboring mexAB-oprM efflux deficient mutant assessed as ceftazidime MIC at 8 uM by checkerboard assay (reference value: 1 ug/ml)
[31] = tested on: Pseudomonas aeruginosa; experiment: Potentiation of ceftazidime-induced antibacterial activity against carbapenem-resistant Pseudomonas aeruginosa 109084 clinical isolate assessed as ceftazidime MIC at 8 uM by checkerboard assay (reference value: 64 ug/ml)
[32] = tested on: Pseudomonas aeruginosa; experiment: Potentiation of aztreonam-induced antibacterial activity against wild type Pseudomonas aeruginosa PAO1 assessed as aztreonam MIC at 8 uM by checkerboard assay (reference value: 4 ug/ml)
[33] = tested on: Pseudomonas aeruginosa; experiment: Potentiation of imipenem-induced antibacterial activity against carbapenem-resistant Pseudomonas aeruginosa PAO200 harboring mexAB-oprM efflux deficient mutant assessed as imipenem MIC at 8 uM by checkerboard assay (reference value: 4 ug/ml)

## N=C(N)NC[C@H]1O[C@H](O[C@H]2[C@H](OCCCCCCCCCCCCN3CCN(c4cc5c(cc4F)c(=O)c(C(=O)O)cn5C4CC4)CC3)[C@@H](O[C@H]3O[C@H](CO)[C@@H](O)[C@H](NC(=N)N)[C@H]3O)[C@H](NC(=N)N)C[C@@H]2NC(=N)N)[C@H](NC(=N)N)C[C@@H]1O.O=C(O)C(F)(F)F.O=C(O)C(F)(F)F.O=C(O)C(F)(F)F.O=C(O)C(F)(F)F.O=C(O)C(F)(F)F.O=C(O)C(F)(F)F
[1]
  fold change (FC): 16
[2]
  MIC: 16 µg/mL
[3]
  MIC: 4 µg/mL
[4]
  MIC: 2 µg/mL
[5]
  MIC: 0.06 µg/mL
[6]
  MIC: 0.06 µg/mL
[7]
  fold change (FC): 16
[8]
  fold change (FC): 2
[9]
  fold change (FC): 16
[10]
  MIC: 32 µg/mL
[11]
  MIC: 32 µg/mL
[12]
  fold change (FC): 16
[13]
  MIC: 32 µg/mL
[14]
  MIC: 32 µg/mL
[15]
  fold change (FC): 16
[16]
  MIC: 8 µg/mL
[17]
  MIC: 32 µg/mL
[18]
  fold change (FC): 16
[19]
  MIC: 64 µg/mL
[20]
  MIC: 8 µg/mL
[21]
  MIC: 16 µg/mL
[22]
  fold change (FC): 2
[23]
  MIC: 4 µg/mL
[24]
  fold change (FC): 2
[25]
  MIC: 32 µg/mL
[26]
  MIC: 4 µg/mL
[27]
  MIC: 1 µg/mL
[28]
  MIC: 0.25 µg/mL
[29]
  MIC: 32 µg/mL
[30]
  MIC: 0.25 µg/mL
[31]
  MIC: 32 µg/mL
[32]
  MIC: 0.5 µg/mL
[33]
  MIC: 2 µg/mL

## NC[C@H]1O[C@H](O[C@H]2[C@H](OCCCCc3cn(CCCCO[C@@H]4[C@@H](O)[C@H](N)C[C@H](N)[C@H]4O[C@H]4O[C@H](CN)[C@@H](O)C[C@H]4N)nn3)[C@@H](O)[C@H](N)C[C@@H]2N)[C@H](N)C[C@@H]1O.O=C(O)C(F)(F)F.O=C(O)C(F)(F)F.O=C(O)C(F)(F)F.O=C(O)C(F)(F)F.O=C(O)C(F)(F)F.O=C(O)C(F)(F)F.O=C(O)C(F)(F)F.O=C(O)C(F)(F)F
[1]
  fold change (FC): 16
[2]
  MIC: 16 µg/mL
[3]
  MIC: 4 µg/mL
[4]
  MIC: 32 µg/mL
[5]
  MIC: 0.25 µg/mL
[6]
  MIC: 0.06 µg/mL
[7]
  fold change (FC): 16
[8]
  fold change (FC): 2
[9]
  fold change (FC): 16
[10]
  MIC: 32 µg/mL
[11]
  MIC: 16 µg/mL
[12]
  fold change (FC): 16
[13]
  MIC: 64 µg/mL
[14]
  MIC: 16 µg/mL
[15]
  fold change (FC): 16
[16]
  MIC: 16 µg/mL
[17]
  MIC: > 128 µg/mL
[18]
  fold change (FC): 16
[19]
  MIC: 64 µg/mL
[20]
  MIC: 8 µg/mL
[21]
  MIC: 16 µg/mL
[22]
  fold change (FC): 2
[23]
  MIC: 8 µg/mL
[24]
  fold change (FC): 2
[25]
  MIC: 32 µg/mL
[26]
  MIC: 0.5 µg/mL
[27]
  MIC: 2 µg/mL
[28]
  MIC: 0.5 µg/mL
[29]
  MIC: 128 µg/mL
[30]
  MIC: 0.25 µg/mL
[31]
  MIC: 32 µg/mL
[32]
  MIC: 1 µg/mL
[33]
  MIC: 1 µg/mL
